Values after ≈ are worked out from the molar mass of the structure shown. Where two headings read alike, the source gives them in different places.
Columns and labels:
[1] = tested on: Mycobacterium tuberculosis H37Ra ITM-M006710 (ATCC 9431); assay: Microplate Alamar Blue Assay (MABA), Mtb H37Ra; assay type: cell-based; conditions: Mycobacterium tuberculosis, 120 h
[2] = tested on: Mycobacterium smegmatis DSM 43465 (ATCC 607); assay: Microplate Alamar Blue Assay (MABA), M. smegmatis; assay type: cell-based; conditions: Mycolicibacterium smegmatis, read-out: M. smegmatis MIC
[3] = tested on: M. aurum DSM 43999 (ATCC 23366); assay: Microplate Alamar Blue Assay (MABA), M. aurum; assay type: cell-based; conditions: Mycolicibacterium aurum, read-out: M. aurum MIC
[4] = tested on: Staphylococcus aureus subsp. aureus CCM 4223 (ATCC 29213); assay: Antibacterial microdilution broth (EUCAST), SA; assay type: cell-based; conditions: Staphylococcus aureus, read-out: SA MIC
[5] = tested on: Staphylococcus aureus subsp. aureus methicillin-resistant (MRSA) CCM 4750 (ATCC 43300); assay: Antibacterial microdilution broth (EUCAST), MRSA; assay type: cell-based; conditions: Staphylococcus aureus, read-out: MRSA MIC
[6] = tested on: Staphylococcus epidermidis CCM 4418 (ATCC 12228); assay: Antibacterial microdilution broth (EUCAST), SE; assay type: cell-based; conditions: read-out: SE MIC
[7] = tested on: Enterococcus faecalis CCM 4224 (ATCC 29212); assay: Antibacterial microdilution broth (EUCAST), EF; assay type: cell-based; conditions: Enterococcus faecalis, read-out: EF MIC
[8] = tested on: Escherichia coli CCM 3954 (ATCC 25922); assay: Antibacterial microdilution broth (EUCAST), EC; assay type: cell-based; conditions: Escherichia coli, read-out: EC MIC
[9] = tested on: Acinetobacter baumannii DSM 30007 (ATCC 19606); assay: Antibacterial microdilution broth (EUCAST), ACI; assay type: cell-based; conditions: Acinetobacter baumannii, read-out: ACI MIC
[10] = tested on: Pseudomonas aeruginosa CCM 3955 (ATCC 27853); assay: Antibacterial microdilution broth (EUCAST), PA; assay type: cell-based; conditions: Pseudomonas aeruginosa, read-out: PA MIC
[11] = tested on: Candida albicans CCM 8320 (ATCC 24433); assay: Antifungal microdilution broth (EUCAST), CA; assay type: cell-based; conditions: Candida albicans, read-out: CA MIC
[12] = tested on: Candida krusei CCM 8271 (ATCC 6258); assay: Antifungal microdilution broth (EUCAST), CK; assay type: cell-based; conditions: Pichia kudriavzevii, read-out: CK MIC
[13] = tested on: Candida parapsilosis CCM 8260 (ATCC 22019); assay: Antifungal microdilution broth (EUCAST), CP; assay type: cell-based; conditions: Lodderomyces parapsilosis, read-out: CP MIC
[14] = tested on: Candida tropicalis CCM 8264 (ATCC 750); assay: Antifungal microdilution broth (EUCAST), CT; assay type: cell-based; conditions: Candida tropicalis, read-out: CT MIC
[15] = tested on: Aspergillus fumigatus ATCC 204305; assay: Antifungal microdilution broth (EUCAST), AF; assay type: cell-based; conditions: Aspergillus fumigatus, read-out: AF MIC
[16] = tested on: Aspergillus flavus CCM 8363; assay: Antifungal microdilution broth (EUCAST), AFla; assay type: cell-based; conditions: Aspergillus flavus, read-out: AFla MIC
[17] = tested on: Lichtheimia corymbifera CCM 8077; assay: Antifungal microdilution broth (EUCAST), LC; assay type: cell-based; conditions: Lichtheimia corymbifera, read-out: LC MIC
[18] = tested on: Trichophyton interdigitale CCM 8377 (ATCC 9533); assay: Antifungal microdilution broth (EUCAST), TI; assay type: cell-based; conditions: Trichophyton interdigitale, 72 h, read-out: TI MIC
[19] = tested on: HepG2 human hepatocellular carcinoma cells; assay: In vitro HepG2 cytotoxicity (CellTiter 96); conditions: Homo sapiens, HepG2, 24 h, read-out: HepG2 IC50, 24 h incubation; * limit = highest evaluated concentration (precipitation in medium); ** over the 1000 µM limit
[20] = tested on: Klebsiella pneumoniae CCM 4415 (ATCC 10031); assay: Antibacterial microdilution broth (EUCAST), KP; conditions: read after 24 h
[21] = pH 6.6, MABA, Middlebrook 7H9 broth pH 6.6, resazurin after 120 h, read-out: Mtb H37Ra MIC

SMILES	MIC [1, 21] [µg/mL]	MIC ([2]; MABA, resazurin after 48 h) [µg/mL]	MIC ([3]; MABA, resazurin after 72 h) [µg/mL]	MIC ([4]; read after 24 h) [µM]	MIC ([5]; read after 24 h) [µM]	MIC ([6]; read after 24 h) [µM]	MIC ([7]; read after 24 h) [µM]	MIC ([8]; read after 24 h) [µM]	MIC ([9]; read after 24 h) [µM]	MIC ([10]; read after 24 h) [µM]	MIC ([11]; read after 24 h) [µM]	MIC ([12]; read after 24 h) [µM]	MIC ([13]; read after 24 h) [µM]	MIC ([14]; read after 24 h) [µM]	MIC ([15]; ATCC204305, read after 24 h) [µM]	MIC ([16]; CCM8363, read after 24 h) [µM]	MIC ([17]; CCM8077, read after 24 h) [µM]	MIC [18] [µM]	melting point [°C]	KP MIC [20] [µM]	also measured
CCCCCCCC(=O)Nc1nccnc1C(N)=O [Compound 32]	250 (≈ 946 µM)	250 (≈ 946 µM)	125 (≈ 473 µM)	> 250	> 250	> 250	> 250	> 250	> 250	> 250	> 250	> 250	> 250	> 250	> 250	> 250	> 250	> 250	127.9 to 129.3	> 250	IC50 [19]: > 1000 µM
COC(=O)c1nccnc1NC(=O)C12CC3CC(CC(C3)C1)C2 [Compound 28e]	≥ 125																	> 125	225.6 to 227.2	> 125	MIC ([2]; 48 h): ≥ 125 µg/mL; MIC ([3]; 72 h): ≥ 125 µg/mL; MIC ([4]; 24 h): > 125 µM; MIC ([5]; 24 h): > 125 µM; MIC ([6]; 24 h): > 125 µM; MIC ([7]; 24 h): > 125 µM; MIC ([8]; 24 h): > 125 µM; MIC ([9]; 24 h): > 125 µM; MIC ([10]; 24 h): > 125 µM; MIC ([11]; 24 h): > 125 µM; MIC ([12]; 24 h): > 125 µM; MIC ([13]; 24 h): > 125 µM; MIC ([14]; 24 h): > 125 µM; MIC ([15]; ATCC204305, 24 h): > 125 µM; MIC ([16]; CCM8363, 24 h): > 125 µM; MIC ([17]; CCM8077, 24 h): > 125 µM
COC(=O)c1nccnc1NC(=O)c1ccccc1F [Compound 10e]	250 (≈ 908 µM)	≥ 500	≥ 500																123.2 to 125.4		
NC(=O)c1nccnc1NC(=O)c1ccccc1O [Compound 22]		≥ 500	≥ 500																> 300		MIC ([1]; pH 6.6, read-out: Mtb H37Ra MIC, MABA, Middlebrook 7H9 broth pH 6.6, resazurin after 120 h): ≥ 500 µg/mL; IC50 [19]: > 250 µM
COC(=O)c1nccnc1NC(=O)c1ccccc1Cl [Compound 13e]	≥ 500	250 (≈ 857 µM)	≥ 500																114.5 to 115.6		
NC(=O)c1nccnc1NC(=O)c1ccc(O)cc1 [Compound 23]	≥ 500	≥ 500	≥ 500																243.7 to 245.1		IC50 [19]: > 500 µM
COC(=O)c1nccnc1NC(=O)c1cccc(Br)c1 [Compound 17e]	≥ 500	≥ 500	≥ 500	> 500	> 500	> 500	> 500	> 500	> 500	> 500	> 500	> 500	> 500	> 500	> 500	> 500	> 500	> 500	123.3 to 125.2	> 500	
COC(=O)c1nccnc1NC(=O)c1ccc(Br)cc1 [Compound 18e]	≥ 500	≥ 500	≥ 500	> 500	> 500	> 500	> 500	> 500	> 500	> 500	> 500	> 500	> 500	> 500	> 500	> 500	> 500	> 500	195.1 to 197	> 500	
COC(=O)c1nccnc1NC(=O)c1ccc(C)cc1 [Compound 4e]	250 (≈ 922 µM)	62.5 (≈ 230 µM)	250 (≈ 922 µM)	> 500	> 500	> 500	> 500	> 500	> 500	> 500	> 500	> 500	> 500	> 500	> 500	> 500	> 500	> 500	158.9 to 161.2	> 500	
COC(=O)c1nccnc1NC(=O)c1cccc(F)c1 [Compound 11e]	250 (≈ 908 µM)	≥ 500	≥ 500																135.5 to 136.3		
NC(=O)c1nccnc1NC(=O)c1ccc(N)cc1 [Compound 24, 3-(4-aminobenzamido)pyrazine-2-carboxamide]	125 (≈ 486 µM)	≥ 250	≥ 250																> 300		IC50 [19]: 929 µM
COC(=O)c1nccnc1NC(=O)C1CCCCC1 [Compound 27e]	≥ 500	125 (≈ 475 µM)	≥ 500	> 500	> 500	> 500	> 500	> 500	> 500	> 500	> 500	> 500	> 500	> 500	> 500	> 500	> 500	> 500	106.9 to 108.3	> 500	
COC(=O)c1nccnc1NC(=O)c1ccc(OC)cc1 [Compound 9e]	≥ 500	≥ 500	≥ 500	> 500	> 500	> 500	> 500	> 500	> 500	> 500	> 500	> 500	> 500	> 500	> 500	> 500	> 500	> 500	144.5 to 145	> 500	
COC(=O)c1nccnc1NC(=O)c1cccc(Cl)c1 [Compound 14e]	250 (≈ 857 µM)	125 (≈ 429 µM)	250 (≈ 857 µM)	> 500	> 500	> 500	> 500	> 500	> 500	> 500	> 500	> 500	> 500	> 500	> 500	> 500	> 500	> 500	146.3 to 147.1	> 500	
COC(=O)c1nccnc1NC(=O)c1ccccc1Br [Compound 16e]	125 (≈ 372 µM)	≥ 500	≥ 500	> 500	> 500	> 500	> 500	> 500	> 500	> 500	> 500	> 500	> 500	> 500	> 500	> 500	> 500	> 500	168.4 to 169.2	> 500	
COC(=O)c1nccnc1NC(=O)c1ccc(F)cc1 [Compound 12e]	≥ 500	≥ 500	≥ 500																151.1 to 153.6		

Source: publication PMC9687610, “Adenosine-Mimicking Derivatives of 3-Aminopyrazine-2-Carboxamide: Towards Inhibitors of Prolyl-tRNA Synthetase with Antimycobacterial Activity” (Biomolecules, 2022)
